Assay results: patent US20080267948A1, “Croos-B Structure Binding Compounds” (priority 2005, published 2008)
Entries after “also recorded” stand apart in the source; their conditions may differ.

Tests used:
[1] = system: human blood platelets; experiment: Platelet aggregation (aggregometric assay with washed platelets); assay type: cell-based; conditions: for platelet aggregation by compound alone: 25 or 50 μg/ml ellagic acid, hydrate
Method: The influence of amyloid-β(1-40) E22Q Dutch type (Aβ) peptide aggregates with cross-β structure conformation on blood platelet aggregation was tested with washed platelets in an aggregometric assay. Freshly drawn human aspirin free blood was mixed gently with citrate buffer to avoid coagulation. Blood was spinned for 15′ at 150*g at 20° C. and supernatant was collected; platelet rich plasma (PRP). […] After spinning down the platelets upon centrifugation for 15′ at 330*g at 20° C., the pellet was resuspended in HEPES-Tyrode buffer pH 6.5. Prostacyclin was added to a final concentration of 10 ng/ml, and the solution was centrifuged for 15′ at 330*g at 20° C., with a soft brake. The pellet was resuspended in HEPES-Tyrode buffer pH 7.2 in a way that the final platelet number was adjusted to 200,000/μl. Platelets were kept at 37° C. for at least 30′, before use in the assays, to ensure that they were in the resting state.
Aggregation of platelets was monitored in an aggregometer (Chrono-Log Corporation, Havertown, Pa., USA) for 15 minutes at 37° C. with a magnet stirring speed of 900 rpm. First, 270 μl of platelet solution was pipetted in the cuvettes and after 1 minute of stirring, 30 μl of preincubated (5 minutes, RT) Aβ and Hematein solution or control was added. The hematein stock was 10 mg/ml in HEPES-Tyrode buffer. The Aβ stock was 1 mg/ml. For blank readings unstirred HEPES Tyrode buffer was used. The aggregation is expressed as the percentage of the light transmission (0-100%). As a positive control, synthetic thrombin receptor activating peptide (TRAP) induced platelet aggregation was used. A control experiment was performed to study the influence of the red colour of hematein on the light transmission. For this, 4 μM TRAP was added at time 1 minute to the platelets, then hematein was added after 6 minutes of aggregation. The platelets were used for not more than 4 hours after isolation to reduce variations in sensitivity amongst subsequent measurements.
Ellagic acid was first dissolved to 100 mg/ml in DMSO, and then further diluted to 1 mg/ml in HBS buffer. Final concentrations of Aβ and ellagic acid in the aggregation assay were 50 μg/ml and 25/50 μg/ml, respectively. In addition, the influence of ellagic acid alone on platelet aggregation was tested. As a control, the influence of 0.08% DMSO on 50 μg/ml Aβ-induced platelet aggregation was analyzed. The 100% DMSO of the ellagic acid stock was diluted 2000 and 4000×, resulting in […] final DMSO concentrations in the aggregation assay.

[2] = target: tPA (Homo sapiens, UniProt P00750); experiment: tPA serine protease activity with OVA heated in the presence of compounds (substrate S-2765); assay type: biochemical; set-up: purchased Boehringer Ingelheim Actilyse; conditions: OVA heated with 1 mg/ml compound, 80-, 160- or 320-fold diluted, 100 nM tPA
Method: For this purpose, the influence of the compounds on heat-denaturation of OVA was analyzed (see above: Thioflavin T fluorescence measurements). Heated OVA at 1 mg/ml in PBS in the presence or absence of 1 mg/ml of the twelve compounds listed in Table 7 in PBS/DMSO (final DMSO concentration 1%) was used 80-fold or 160-fold or 320-fold diluted (final heated OVA concentration and compound concentration was 12.5 or 6.3 or 3.1 μg/ml; final DMSO concentration was 0.013% and 0.006% and 0.003%).

[3] = target: T1, tPA/plasminogen (Homo sapiens, UniProt P00750); experiment: tPA/plasminogen activation by pre-formed misfolded OVA in the presence of compounds; assay type: biochemical; conditions: 80-fold or 160-fold diluted compound and misfolded OVA stocks of 1 mg/ml
T1 construct: purchased Boehringer Ingelheim Actilyse
Method: […] Negative control was buffer without OVA. […] In addition, it was assessed whether the compounds interfere with absorbance readings at 405 nm, with converted chromogenic substrate. […] The yellow solution is divided over wells of an ELISA plate. […] Signals are compared and related to the control.

[4] = target: T2, factor XII (Homo sapiens, UniProt P00748); experiment: Factor XII activation assay (chromogenic, prekallikrein, Chromozyme-PK); assay type: biochemical; set-up: purchased Calbiochem; conditions: for activation of factor XII by compound alone: without protein cofactor, ellagic acid 50 μg/ml
T2 sequence (P00748 20-615): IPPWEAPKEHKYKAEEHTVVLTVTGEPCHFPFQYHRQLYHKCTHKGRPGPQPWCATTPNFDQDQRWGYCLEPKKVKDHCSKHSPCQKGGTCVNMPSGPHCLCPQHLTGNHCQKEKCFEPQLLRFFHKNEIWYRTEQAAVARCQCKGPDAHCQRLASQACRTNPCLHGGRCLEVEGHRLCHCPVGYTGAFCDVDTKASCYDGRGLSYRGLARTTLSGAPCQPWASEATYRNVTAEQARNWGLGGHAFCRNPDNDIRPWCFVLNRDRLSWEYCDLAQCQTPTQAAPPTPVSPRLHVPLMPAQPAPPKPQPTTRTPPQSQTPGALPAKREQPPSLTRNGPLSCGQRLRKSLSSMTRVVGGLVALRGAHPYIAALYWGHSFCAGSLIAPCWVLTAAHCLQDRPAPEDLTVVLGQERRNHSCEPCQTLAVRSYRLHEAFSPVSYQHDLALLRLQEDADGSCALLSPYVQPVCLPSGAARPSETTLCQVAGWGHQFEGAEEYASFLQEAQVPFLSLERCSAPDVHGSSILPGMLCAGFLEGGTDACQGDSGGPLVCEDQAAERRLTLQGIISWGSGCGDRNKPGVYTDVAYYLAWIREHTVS
Method: For this purpose, in a reaction volume of 60 μl the following components were mixed: 10 μl of 300 μg/ml ellagic acid solution or control buffer, 10 μl of 750 μg/ml I or control buffer, 20 μl of a solution comprising [HEPES-buffered saline, 1.96 μg/ml prekallikrein (Calbiochem), 10 mM ZnCl2, 2.13 μg/ml high molecular weight kininogen (Calbiochem); ‘PK mix’ ], 10 μl Chromozyme-PK (Roche, 1 mg/ml aliquot) and 10 μl of a solution comprising 1 mM ZnCl2, HEPES-buffered saline and 4.76 μg/ml factor XII (Calbiochem); ‘FXII mix’. Nunc Immobilizer plates were blocked with PBS with 1% Tween20 for 1 hour at room temperature under constant motion. All reagents were kept on ice throughout preparation of the experiment. The factor XII activating capacity of ellagic acid (Sigma, E-2250, St. Louis, Mo., USA) or I (Cealb, Sanquin, Amsterdam, The Netherlands) alone, and combination thereof was determined in duplicate. After adding 10 μL of I solution or buffer and 10 μl of ellagic acid solution or buffer to the wells, 20 μL of PK mix was added to each well. Ten μL of kallikrein substrate Chromozyme PK was added to each well, followed by 10 μL of freshly prepared FXII mix. Final I and ellagic acid concentrations are 125 μg/ml and 50 μg/ml. Absorbance was measured at 405 nm at 37° C. for 3 hours with brief shaking every minute.

Chain of tPA (P00750 36-562): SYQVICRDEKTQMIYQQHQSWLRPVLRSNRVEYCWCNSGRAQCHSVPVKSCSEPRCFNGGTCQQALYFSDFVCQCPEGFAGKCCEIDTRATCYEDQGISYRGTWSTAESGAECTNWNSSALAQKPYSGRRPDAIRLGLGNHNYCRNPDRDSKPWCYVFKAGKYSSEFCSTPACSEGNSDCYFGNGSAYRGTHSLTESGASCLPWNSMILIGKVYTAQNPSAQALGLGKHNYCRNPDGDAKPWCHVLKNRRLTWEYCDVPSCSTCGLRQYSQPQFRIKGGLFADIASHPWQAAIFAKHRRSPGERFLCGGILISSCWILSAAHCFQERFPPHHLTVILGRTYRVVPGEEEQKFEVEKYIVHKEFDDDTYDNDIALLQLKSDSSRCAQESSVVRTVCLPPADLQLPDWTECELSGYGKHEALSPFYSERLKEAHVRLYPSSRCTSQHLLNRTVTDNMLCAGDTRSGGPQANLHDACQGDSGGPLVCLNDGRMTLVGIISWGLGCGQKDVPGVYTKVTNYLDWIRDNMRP
T1 sequence (P00750 36-562): as above

For `O=c1oc2c(O)c(O)cc3c(=O)oc4c(O)c(O)cc1c4c23` [compound 117, Ellagic acid hydrate], the “influence on Aβ induced platelet aggregation” value ([1]; 25 and 50 μg/ml ellagic acid hydrate, 100 μg/ml Aβ) was “further enhances amyloid-β triggered aggregation”, the “platelet aggregation by compound alone” value ([1]; listed as ellagic acid hydrate) was “potent activator of platelets resulting in their aggregation; also recorded: Stimulation of platelet aggregation” and the “platelet aggregation by compound alone” value ([1]; listed as ellagic acid) was “strong inducer of aggregation”. For the same compound, the “influence on tPA protease activity of OVA heated in the presence of compound” value [2] was “Potentiation of tPA protease activity”, the “influence on tPA/plasminogen activation by pre-formed misfolded OVA” value [3] was “Full block of tPA/plasminogen activation by misfolded OVA” and the “activation of factor XII/kallikrein generation, compound combined with human serum albumin” value ([4]; 50 μg/ml ellagic acid with 125 μg/ml HSA, hydrate) was “potent activator of kallikrein generation; also recorded: kallikrein substrate Chromozyme-PK conversion is only observed when in addition 125 μg/ml HSA is included in the assay”. The “Activation of factor XII (summary)” value ([4]; summary Table 9) was “Activation of factor XII”, the “activation of factor XII by compound alone” value ([4]; listed as Ellagic acid, hydrate) was “factor XII/kallikrein activity comparable to control buffer” and the “activation of factor XII by compound alone” value ([4]; listed as ellagic acid, hydrate) was “poor activators of factor XII”.
